One data set has as its system PR8 influenza virus. The class given is cell-based, Influenza A H1N1.
Data set [1] relates to group-1 influenza strains (H1N1, H5N1 and H6N2). The format is cell-based, Influenza A.
The subject of data set [2] is CA09 influenza virus (H1N1). The format is cell-based, Influenza A H1N1.
The test system of data set [3] is H1N1 CA09 virus. Further details: species or system BALB/c mice. The conditions noted are these: mouse, in vivo.
Data set [4] is classed as physicochemical. The conditions noted are these: pH 7.4.
Data set [5] deals with H1N1 CA09 virus. Further details: species or system BALB/c mice. Conditions: mouse, in vivo. This is another data set of the same source.
Another data set concerns HK/X31 (H3N2), group 2. The format is cell-based, Influenza A.
Data set [6] is classed as physicochemical. Conditions: pH 7.4. This is another data set of the same source.

Like-named read-outs stand apart in the source and are kept apart here. Bridge positions count the residues as written; N and C are the ends. Ends that are not written are not given here. Peptide text beside a SMILES is read from it.

With `CC[C@H](C)[C@@H]1NC(=O)[C@H](CCC(=O)O)NC(=O)[C@H](C)NC(=O)[C@H](C)NC(=O)[C@H]([C@@H](C)O)NC(=O)[C@H](CCC(N)=O)NC(=O)[C@@H]2CSSC[C@H](NC(=O)[C@H](CC(N)=O)NC(=O)CNC(=O)[C@H](CC(N)=O)NC(=O)[C@H](CC(=O)O)NC(=O)[C@H](C(C)C)NC(=O)[C@H](CCSC)NC(=O)[C@H]([C@@H](C)CC)NC(=O)[C@H](CCCCN)NC(=O)[C@H](C(C)C)NC(=O)[C@H]([C@@H](C)O)NC(=O)[C@H](Cc3ccc(O)cc3)NC(=O)CNC(=O)[C@H](Cc3ccccc3)NC(=O)[C@H](C)NC(=O)[C@H](CCCNC(=N)N)NC(=O)[C@H](Cc3c[nH]c4ccccc34)NC1=O)C(=O)N[C@@H](CCCNC(=N)N)C(=O)N[C@@H](CC(C)C)C(=O)N[C@@H](Cc1c[nH]cn1)C(=O)N[C@@H](C(C)C)C(=O)N[C@H](C(=O)O)CSSC[C@H](N)C(=O)N[C@@H]([C@@H](C)CC)C(=O)N[C@@H](CCC(=O)O)C(=O)N[C@@H](CCC(N)=O)C(=O)N[C@@H](CO)C(=O)N[C@@H](Cc1ccccc1)C(=O)N[C@@H]([C@@H](C)O)C(=O)N[C@@H]([C@@H](C)O)C(=O)N[C@@H](CC(C)C)C(=O)N[C@@H](Cc1ccccc1)C(=O)N[C@@H](C)C(=O)N2` [HB1.6928.2.3] (H-CIEQSFTTLFACQTAAEIWRAFGYTVKIMVDNGNCRLHVC-OH; disulfide 1-40, 12-35; N-terminus and C-terminus assumed), the “neutralization of PR8 virus” value with PR8 influenza virus is “strongly neutralized”. In data set [1], the “efficiency (EC50) in inhibiting infection, compared with HB36.6 and FI6v3” value was “most efficiently inhibited infection”. In data set [2], the “EC50 for Cal09 (CA09), fold lower than FI6v3 or HB36.6” value is recorded as “more than 100 fold” and the “neutralization of CA09 virus” value is “strongly neutralized”. In the data set with H1N1 CA09 virus [3], the survival is recorded as 100% and the weight loss entry is on record as “less than 10%”. For the same compound, in [4], the Tm is more than 95 °C. In the data set with H1N1 CA09 virus [5], the “protection after intravenous administration” value was “little protection”, the “protection after repeated administration compared with no prior dosing” value is on record as “remains equally protective” and the survival turned out to be 100%. In addition, the “neutralization of H3N2” value in the data set on HK/X31 (H3N2), group 2 is listed as “no neutralization”. Also, the “reduction of binding activity after incubation at 80 °C” value in [6] is reported as “no detectable loss of binding”.
Regarding “HB1.5702.3: chemically synthesized HA binder (TSGVRATSKFAALIAAEIAREFGYTVDVQEKNGEWRVVFD)”, the “trypsin concentration above which gel bands weaken (proteolytic degradation)” value with trypsin was more than 2.86 µM.
Consider “HB1.6394.2: chemically synthesized HA binder containing disulfides (CQEYRFTNPFACQIALEILRDFGYACTVQTINGECRVRCC; disulfide (positions not given here))”, for which the degradation by trypsin entry in the data set on trypsin is “no degradation”.
As to “HB1.6928.2: chemically synthesized HA binder containing disulfides (CIEQSFTTLFACQTAAEIWRAFGYTVKIMVDNGNCRLHVC; disulfide (positions not given here))”, the degradation by trypsin result in the data set on trypsin is “no degradation”.
Turning to “TMTSITTSPFAAEIAARIWAEFGYTVRIETRGKTVHVTVD [HB1.6811.3]”, the Tm in [4] came to 70 °C.
On to “TSGVRATSKFAALIAAEIAREFGYTVDVQEKNGEWRVVFD [HB1.5702.3.3]”, for which the Tm in data set [4] worked out at 70 °C.
Same read-out and setting: next, “TSRVRATSKFAALIAAEIAREFGYTVDVQEVNGQWEVTFD [HB1.5702.2]”: 72 °C.

The values above are taken from PMC5802399 (Nature, 2017).
